The target in test [1] is T1, GPIb (Homo sapiens, UniProt P07359).
T1 construct: endogenous in cells; host or cells: fresh or formalin-fixed platelets
Put plainly: Inhibition of ristocetin-induced binding of 125I-vWF to formalin-fixed platelets by peptides. The settings on record: formalin-fixed platelets 1 x 10¹¹/liter, 125I-vWF 5 micrograms/ml, ristocetin 1.0 mg/ml, 30 minutes room temperature; read-out: IC₅₀ (concentration of peptide which inhibited binding by 50%). As to the method: To test the inhibition of ristocetin-induced binding of vWF to platelets by peptides, formalin-fixed platelets were used at a final concentration of 1 x 10¹¹/liter. Peptides to be tested were then added at various concentrations. One third final volume of vWF deficient plasma was then added followed by ¹²⁵I-vWF a final concentration of 5 micrograms/ml. Ristocetin was then added at a concentration of 1.0 mg/ml. After incubation for 30 minutes at room temperature bound and free ligand were separated by centrifuging 50 microliters of the mixture through 300 microliters of 20% sucrose at 12,000 x g for 4 minutes. The platelet pellet was then separated from the rest of the mixture to determine platelet-bound radioactivity. Nonspecific binding was defined as the residual binding of ¹²⁵I-vWF in the presence of a 50-fold excess of unlabeled vWF but in the absence of any peptides.
Percent inhibition with a given peptide was calculated by […]. The IC₅₀'s (concentration of peptide which inhibited binding by 50%) for the peptides tested were as follows: […]

Test [2] deals with T1, GPIb. Put plainly: Inhibition of 125I-asialo-vWF binding to fresh platelets by peptides. As to the method: To test the inhibitions of asialo-vWF binding to platelets, fresh platelets were used. These were prepared by drawing blood into 11 millimolar trisodium citrate and 2 millimolar EDTA. Platelet-rich plasma was then prepared by differential centrifugation. The platelet count was then adjusted to 1 x 10¹¹/liter. Peptides were then added to various concentrations and ¹²⁵I-asialo-vWF was then added at a final concentration of 5 micrograms/ml. After incubation for 30 minutes at room temperature bound and free ligand were separated by centrifuging 50 microliters of the mixture through 300 microliters of 20% sucrose at 12,000 x g for 4 minutes. The platelet pellet was then separated from the rest of the mixture to determine platelet-bound radioactivity. Non-specific binding was defined as the residual binding of ¹²⁵I-asialo-vWF in the presence of a 50-fold excess of unlabeled vWF but in the absence of any peptides.
Percent inhibition with a given peptide was calculated by dividing the specific cpm obtained when various concentrations of peptide were added by the specific cpm in the absence of peptide. The IC₅₀'s (concentration of peptide which inhibited binding by 50%) for the peptides tested were as follows: […]

The mark [3] stands for this setting: fresh platelets 1 x 10¹¹/liter, 125I-asialo-vWF 5 micrograms/ml, 30 minutes room temperature, read-out: IC₅₀ (concentration of peptide which inhibited binding by 50%).

pIC50: −log10 of the molar value. Where a SMILES comes first, the peptide text is derived from it. Where no end group is shown, it is not given here.

T1 sequence (P07359 17-652): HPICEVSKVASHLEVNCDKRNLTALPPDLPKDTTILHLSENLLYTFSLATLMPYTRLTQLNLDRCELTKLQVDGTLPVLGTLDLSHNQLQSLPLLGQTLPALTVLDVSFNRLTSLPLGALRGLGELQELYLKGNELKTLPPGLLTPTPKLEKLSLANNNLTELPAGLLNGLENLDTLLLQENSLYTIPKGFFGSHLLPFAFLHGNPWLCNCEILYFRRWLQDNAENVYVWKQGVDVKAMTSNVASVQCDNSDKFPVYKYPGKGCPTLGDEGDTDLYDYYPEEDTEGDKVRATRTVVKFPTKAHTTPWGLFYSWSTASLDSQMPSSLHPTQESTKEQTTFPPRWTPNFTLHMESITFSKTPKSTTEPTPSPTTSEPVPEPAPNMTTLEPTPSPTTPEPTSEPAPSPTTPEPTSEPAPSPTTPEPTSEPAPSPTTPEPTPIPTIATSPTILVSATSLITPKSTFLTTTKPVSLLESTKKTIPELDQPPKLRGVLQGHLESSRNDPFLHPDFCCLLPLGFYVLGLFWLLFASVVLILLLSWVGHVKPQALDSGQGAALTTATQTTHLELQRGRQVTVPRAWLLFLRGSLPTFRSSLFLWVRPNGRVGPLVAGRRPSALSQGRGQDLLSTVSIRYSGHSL
T1 sequence (P13224 26-206 partner): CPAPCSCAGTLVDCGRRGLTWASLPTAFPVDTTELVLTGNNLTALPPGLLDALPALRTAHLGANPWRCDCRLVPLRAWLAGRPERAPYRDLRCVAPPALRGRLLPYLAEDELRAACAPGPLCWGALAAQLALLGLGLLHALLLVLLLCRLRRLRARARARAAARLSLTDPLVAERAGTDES
T1 sequence (P14770 17-177 partner): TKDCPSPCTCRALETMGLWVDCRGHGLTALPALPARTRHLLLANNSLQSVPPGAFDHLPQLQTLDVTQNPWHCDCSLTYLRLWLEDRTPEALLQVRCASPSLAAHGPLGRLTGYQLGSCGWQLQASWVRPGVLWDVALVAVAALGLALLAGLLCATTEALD

In the case of YRGDV [YRGDV, reference compound], the pIC50 on GPIb [1] was under 3.22. Regarding KRKRKRKRGDV [(KR)₄GDV], the pIC50 at GPIb [2] (setting [3]) was 4.82; at GPIb [1], 4.80. For `N=C(N)NCCC[C@H](NC(=O)[C@H](CCCCN)NC(=O)[C@H](CCCNC(=N)N)NC(=O)[C@@H](N)CCCCN)C(=O)O` [(KR)₂] (H-KRKR-OH), the pIC50 on GPIb [1] was 3.70. KRKRKR [(KR)₃]: the pIC50 on GPIb [2] (setting [3]) was 4.64; on GPIb [1] it was 3.92. In the case of RRRRRRRRGDV [(R)₈GDV], the pIC50 is 5.46 on GPIb [2] and 5.22 on GPIb [1].

For the origin of these results see patent EP0317278A2, “Proteolytic fragments and synthetic peptides that block the binding of von Willebrand factor to the platelet membrane glycoprotein Ib” (SCRIPPS CLINIC AND RESEARCH FOUNDATION, priority 1987, dated 1989).
